Reference: patent US11597708B2, “Inhibitors of heat shock factors and uses thereof” (HSF Pharmaceuticals SA, priority 2016, dated 2023)

Tests used:
Type in all cases: cell-based
[1] = molecular target: T1, HSF1 occupancy of the hspa1a promoter (Homo sapiens, UniProt Q00613); assay: Chromatin immunoprecipitation, HSF1 occupancy of hspa1a promoter in HeLa cells; conditions: 12.5 μM for two hours, then heat-treated
T1 construct: functionally linked to an hsp70b promoter and therefore controlled by endogenous HSF1; endogenous in cells; host or cells: HeLa cells / HeLa-derived cell line Z74
Procedure: FIG. 3. (A) HeLa cell cultures were mock-treated (−) or exposed for 2 hours to the indicated concentrations of compounds 058 or 115 and then heat-treated (HS) at 43° C. for 30 min. Top panels: HSF1 DNA-binding activities in cell extracts were determined by EMSA. The panels show the major HSF1-HSE DNA probe complexes. Middle panels: HSF1 levels assayed by western blot (WB). GAPDH served as a loading control. Bottom panels: HSF1 homooligomerization. Aliquots of extracts were EGS-treated and then analyzed by anti-HSF1 WB. The positions of pre-stained molecular weight marker proteins (MW, in thousands) are indicated to the right. Asterisks indicate the positions of monomeric and trimeric HSF1, respectively. (B) Relative occupancy of the hspa1a promoter was assessed by chromatin immunoprecipitation assay of HeLa cell cultures mock-treated (−) or treated with compounds 058 or 115 at 12.5 μM concentrations for 2 hours and then heat-treated (HS) at 43° C. for 30 min. Chromatin fragments were immunoprecipitated using HSF1 antibodies or an F4/80 LR (control) antibody, and associated hspa1a promoter DNA was quantified by real-time PCR.
We also investigated whether the compounds were capable of interfering with HSF1 oligomerization. Aliquots of the extracts were subjected to cross-linking with EGS (ethylene glycolbis(succinimidylsuccinate)) and then re-analyzed by anti-HSF1 WB. […]

HSF1-ATF1 interaction = molecular target: T2, HSF1-ATF1 interaction (Homo sapiens, UniProt Q00613); assay: Anti-FLAG immunoprecipitation of FLAG-tagged HSF1 and WB (HSF1-ATF1 interaction); conditions: HeLa-derived line expressing FLAG-tagged HSF1, heat-treated 30 min at 43° C.
T2 construct: expressed in transfected cells; host or cells: HeLa-derived cell line stably expressing HSF1-FLAG
Source text: Recruitment of HSF1 to target promoters in response to a stress is mediated by ATF1/CREB. Takii, R. et al. (2015) Mol. Cell. Biol. 35: 11-25. ATF1/CREB regulates the stress-induced HSF1 transcription complex that includes BRG1 chromatin-remodeling complex and p300/CBP. The former complex promotes an active chromatin state in the promoters, whereas p300/CBP accelerates the shutdown of HSF1 DNA-binding activity as well as stabilizes HSF1 against proteasomal degradation during recovery from stress. To assess the effects of the IHSF on the assembly of the transcription complex, use was made of a HeLa-derived cell line that stably expresses a C-terminally FLAG-tagged HSF1. Cultures were heat-treated for 30 min at 43° C. in the presence or absence of IHSF 115, extracts were prepared, and tagged HSF1 was immunoprecipitated using an anti-FLAG antibody.

BT-20 = assay: Alamar Blue viability assay; conditions: Homo sapiens, Breast, P53 Mut, 96-hour exposure
Procedure: (§1) Cultures of HeLa cells were exposed for 96 hours to different concentrations of IHSF 001, 058 and 115, and viability was assessed using an Alamar Blue assay. It is noted that this standard assay examines attached cells only. This subject will be discussed in more detail below. […] The relative cytotoxicity of the compounds appears to parallel their respective activities as inhibitors of HSF1 function (inhibition of RLuc expression in Z74 cells). We next examined the viability of different human cancer cell lines subsequent to a 96-hour exposure to compound 115 (Table 3). HSF1 was reported as being required for optimal p21 expression and for p53-mediated cell cycle arrest in response to genotoxins. Logan, I. R. et al. (2009) Nucleic Acids Res. 37: 2962-2971. […] Cell lines of different p53 status were included in the experiments in order to find out whether sensitivity to IHSF 115 was related to p53 status. […] No effect of p53 status could be discovered. It is noted that a number of additional HSF inhibitors of the present disclosure were tested and found to effectively reduce the viability of human cancer cells.

BT-474 = assay: Alamar Blue viability assay; conditions: Homo sapiens, Breast, P53 Mut, 96-hour exposure
Procedure: as §1

IM9 = assay: Alamar Blue viability assay; conditions: Homo sapiens, IM-9, Multiple myeloma, P53 Wt, 96-hour exposure
Procedure: as §1

MG-63 = assay: Alamar Blue viability assay; conditions: Homo sapiens, Osteosarcoma, P53 Mut, 96-hour exposure
Procedure: as §1

MM.1R = assay: Alamar Blue viability assay; conditions: Homo sapiens, Multiple myeloma, P53 Wt, 96-hour exposure
Procedure: as §1

NCI-H1975 = assay: Alamar Blue viability assay; conditions: Homo sapiens, Lung, P53 Wt, 96-hour exposure
Procedure: as §1

NCI-H2228 = assay: Alamar Blue viability assay; conditions: Homo sapiens, Lung, P53 Wt, 96-hour exposure
Procedure: as §1

PEA1 = assay: Alamar Blue viability assay; conditions: Homo sapiens, Ovarian carcinoma, P53 Mut, 96-hour exposure
Procedure: as §1

SK-N-SH = assay: Alamar Blue viability assay; conditions: Homo sapiens, Neuroblastoma, P53 Wt, 96-hour exposure
Procedure: as §1

sNF96.2 = assay: Alamar Blue viability assay; conditions: Homo sapiens, Malignant peripheral nerve sheath, P53 Wt, 96-hour exposure
Procedure: as §1

T1 sequence (Q00613 whole entry): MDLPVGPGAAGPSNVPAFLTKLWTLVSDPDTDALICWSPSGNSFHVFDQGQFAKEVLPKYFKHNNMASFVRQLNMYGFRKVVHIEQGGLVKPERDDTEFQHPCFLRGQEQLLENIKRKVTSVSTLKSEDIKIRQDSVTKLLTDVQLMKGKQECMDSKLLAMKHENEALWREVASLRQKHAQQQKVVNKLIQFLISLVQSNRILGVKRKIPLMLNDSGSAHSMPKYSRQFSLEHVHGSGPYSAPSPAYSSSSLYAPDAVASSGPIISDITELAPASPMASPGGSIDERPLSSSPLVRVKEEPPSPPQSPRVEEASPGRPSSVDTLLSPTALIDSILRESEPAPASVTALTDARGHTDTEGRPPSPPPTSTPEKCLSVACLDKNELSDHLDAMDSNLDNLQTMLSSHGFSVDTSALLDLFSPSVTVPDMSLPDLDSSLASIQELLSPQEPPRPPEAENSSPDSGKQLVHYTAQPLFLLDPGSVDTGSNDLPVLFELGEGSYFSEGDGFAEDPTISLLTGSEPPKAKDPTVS
T2 sequence (Q00613 whole entry): as above

For `CN(C(=O)/C=C/C1=NCCCO1)c1ncc(-c2cccnc2)s1` [IHSF 115, (E)-3-(5,6-Dihydro-4H-[1,3]oxazin-2-yl)-N-methyl-N-(5-pyridin-3-yl-thiazol-2-yl)-acrylamide], the “HSF1 occupancy of the hspa1a promoter (ChIP)” value [1] was “not reduced substantially”, the “HSF1-ATF1 interaction (co-immunoprecipitation, WB)” value (HSF1-ATF1 interaction) was “dramatically reduced” and the EC50 (BT-20) was 8.2 µM. For the same compound, the EC50 (BT-474) was 5.2 µM, the EC50 (IM9) was 2.3 µM and the EC50 (MG-63) was 4.6 µM. For the same compound, the EC50 (MM.1R) was 1.7 µM, the EC50 (NCI-H1975) was 5.1 µM and the EC50 (NCI-H2228) was 12.8 µM. The EC50 (PEA1) was 4.1 µM, the EC50 (SK-N-SH) was 4 µM and the EC50 (sNF96.2) was 4.2 µM.
